pIC50: −log10 of the molar value. Values belong to the compound of their own block, whether it stands above or below them.
Tests used:
[1] = tested on: Liver; test: Biodistribution in liver of NMRI nude mouse xenografted with human PC3 cells after 104 mins by gamma-counting analysis; assay type: ADME, organism-based, PC-3; settings: in vivo
[2] = tested on: Mus musculus; test: Biodistribution in tumor of NMRI nude mouse xenografted with human PC3 cells at 3.6 to 5.1 MBq after 62 to 170 mins by PET imaging analysis; assay type: ADME, organism-based, Neoplasm, PC-3; settings: in vivo
[3] = tested on: Bone; test: Biodistribution in bone of NMRI nude mouse xenografted with human PC3 cells after 182 mins by gamma-counting analysis; assay type: ADME, organism-based, Bone element, PC-3; settings: in vivo
[4] = tested on: Mus musculus; test: Biodistribution in prostate of NMRI nude mouse xenografted with human PC3 cells after 104 mins by gamma-counting analysis; assay type: ADME, organism-based, Prostate gland, PC-3; settings: in vivo
[5] = tested on: Spleen; test: Biodistribution in spleen of NMRI nude mouse xenografted with human PC3 cells after 182 mins by gamma-counting analysis; assay type: ADME, organism-based, PC-3; settings: in vivo
[6] = tested on: Bone; test: Biodistribution in bone of NMRI nude mouse xenografted with human PC3 cells after 104 mins by gamma-counting analysis; assay type: ADME, organism-based, Bone element, PC-3; settings: in vivo
[7] = Biodistribution in urine of NMRI nude mouse xenografted with human PC3 cells after 104 mins by gamma-counting analysis; assay type: ADME, organism-based, PC-3; settings: in vivo
[8] = Ratio of biodistribution in tumor to muscle of NMRI nude mouse xenografted with human PC3 cells after 104 mins by gamma-counting analysis; assay type: ADME, organism-based, PC-3; settings: in vivo
[9] = tested on: Mus musculus; test: Biodistribution in tumor of NMRI nude mouse xenografted with human PC3 cells after 182 mins by gamma-counting analysis; assay type: ADME, organism-based, Neoplasm, PC-3; settings: in vivo
[10] = Ratio of biodistribution in tumor to blood of NMRI nude mouse xenografted with human PC3 cells after 182 mins by gamma-counting analysis; assay type: ADME, organism-based, PC-3; settings: tumour
[11] = tested on: Mus musculus; test: Biodistribution in adrenal gland of NMRI nude mouse xenografted with human PC3 cells after 182 mins by gamma-counting analysis; assay type: ADME, organism-based, PC-3; settings: in vivo
[12] = Biodistribution in fat of NMRI nude mouse xenografted with human PC3 cells after 104 mins by gamma-counting analysis; assay type: ADME, organism-based, Adipose tissue, PC-3; settings: in vivo
[13] = tested on: Blood; test: Biodistribution in blood of NMRI nude mouse xenografted with human PC3 cells after 182 mins by gamma-counting analysis; assay type: ADME, organism-based, PC-3; settings: in vivo
[14] = tested on: Heart; test: Biodistribution in heart of NMRI nude mouse xenografted with human PC3 cells after 182 mins by gamma-counting analysis; assay type: ADME, organism-based, PC-3; settings: in vivo
[15] = tested on: Stomach; test: Biodistribution in stomach of NMRI nude mouse xenografted with human PC3 cells after 182 mins by gamma-counting analysis; assay type: ADME, organism-based, PC-3; settings: in vivo
[16] = Biodistribution in urine of NMRI nude mouse xenografted with human PC3 cells after 182 mins by gamma-counting analysis; assay type: ADME, organism-based, PC-3; settings: in vivo
[17] = tested on: Liver; test: Biodistribution in liver of NMRI nude mouse xenografted with human PC3 cells after 182 mins by gamma-counting analysis; assay type: ADME, organism-based, PC-3; settings: in vivo
[18] = tested on: Mus musculus; test: Biodistribution in gallbladder of NMRI nude mouse xenografted with human PC3 cells after 182 mins by gamma-counting analysis; assay type: ADME, organism-based, Gall bladder, PC-3; settings: in vivo
[19] = tested on: Intestine; test: Biodistribution in intestine of NMRI nude mouse xenografted with human PC3 cells after 182 mins by gamma-counting analysis; assay type: ADME, organism-based, PC-3; settings: in vivo
[20] = tested on: Mus musculus; test: Biodistribution in gallbladder of NMRI nude mouse xenografted with human PC3 cells after 104 mins by gamma-counting analysis; assay type: ADME, organism-based, Gall bladder, PC-3; settings: in vivo
[21] = Biodistribution in fat of NMRI nude mouse xenografted with human PC3 cells after 182 mins by gamma-counting analysis; assay type: ADME, organism-based, Adipose tissue, PC-3; settings: in vivo
[22] = tested on: Mus musculus; test: Biodistribution in prostate of NMRI nude mouse xenografted with human PC3 cells after 182 mins by gamma-counting analysis; assay type: ADME, organism-based, Prostate gland, PC-3; settings: in vivo
[23] = Ratio of biodistribution in tumor to muscle of NMRI nude mouse xenografted with human PC3 cells after 182 mins by gamma-counting analysis; assay type: ADME, organism-based, PC-3; settings: in vivo
[24] = tested on: Muscle tissue; test: Biodistribution in muscle of NMRI nude mouse xenografted with human PC3 cells after 104 mins by gamma-counting analysis; assay type: ADME, organism-based, PC-3; settings: in vivo
[25] = tested on: Blood; test: Biodistribution in blood of NMRI nude mouse xenografted with human PC3 cells after 104 mins by gamma-counting analysis; assay type: ADME, organism-based, PC-3; settings: in vivo
[26] = tested on: Mus musculus; test: Biodistribution in tumor of NMRI nude mouse xenografted with human PC3 cells after 104 mins by gamma-counting analysis; assay type: ADME, organism-based, Neoplasm, PC-3; settings: in vivo
[27] = tested on: Stomach; test: Biodistribution in stomach of NMRI nude mouse xenografted with human PC3 cells after 104 mins by gamma-counting analysis; assay type: ADME, organism-based, PC-3; settings: in vivo
[28] = Ratio of biodistribution in tumor to blood of NMRI nude mouse xenografted with human PC3 cells after 104 mins by gamma-counting analysis; assay type: ADME, organism-based, PC-3; settings: tumour
[29] = tested on: Kidney; test: Biodistribution in kidney of NMRI nude mouse xenografted with human PC3 cells after 104 mins by gamma-counting analysis; assay type: ADME, organism-based, PC-3; settings: in vivo
[30] = tested on: Heart; test: Biodistribution in heart of NMRI nude mouse xenografted with human PC3 cells after 104 mins by gamma-counting analysis; assay type: ADME, organism-based, PC-3; settings: in vivo
[31] = tested on: Intestine; test: Biodistribution in intestine of NMRI nude mouse xenografted with human PC3 cells after 104 mins by gamma-counting analysis; assay type: ADME, organism-based, PC-3; settings: in vivo
[32] = tested on: Spleen; test: Biodistribution in spleen of NMRI nude mouse xenografted with human PC3 cells after 104 mins by gamma-counting analysis; assay type: ADME, organism-based, PC-3; settings: in vivo
[33] = tested on: Mus musculus; test: Biodistribution in adrenal gland of NMRI nude mouse xenografted with human PC3 cells after 104 mins by gamma-counting analysis; assay type: ADME, organism-based, PC-3; settings: in vivo
[34] = tested on: Pancreas; test: Biodistribution in pancreas of NMRI nude mouse xenografted with human PC3 cells after 182 mins by gamma-counting analysis; assay type: ADME, organism-based, PC-3; settings: in vivo
[35] = tested on: Pancreas; test: Biodistribution in pancreas of NMRI nude mouse xenografted with human PC3 cells after 104 mins by gamma-counting analysis; assay type: ADME, organism-based, PC-3; settings: in vivo
[36] = tested on: Mus musculus; test: Biodistribution in abdominal region of NMRI nude mouse xenografted with human PC3 cells at 3.6 to 5.1 MBq after 62 to 170 mins by PET imaging analysis; assay type: ADME, organism-based, Abdomen, PC-3; settings: in vivo
[37] = tested on: Lung; test: Biodistribution in lung of NMRI nude mouse xenografted with human PC3 cells after 182 mins by gamma-counting analysis; assay type: ADME, organism-based, PC-3; settings: in vivo
[38] = tested on: Lung; test: Biodistribution in lung of NMRI nude mouse xenografted with human PC3 cells after 104 mins by gamma-counting analysis; assay type: ADME, organism-based, PC-3; settings: in vivo
[39] = tested on: Muscle tissue; test: Biodistribution in muscle of NMRI nude mouse xenografted with human PC3 cells after 182 mins by gamma-counting analysis; assay type: ADME, organism-based, PC-3; settings: in vivo
[40] = tested on: Kidney; test: Biodistribution in kidney of NMRI nude mouse xenografted with human PC3 cells after 182 mins by gamma-counting analysis; assay type: ADME, organism-based, PC-3; settings: in vivo
[41] = Stability of the compound in PBS buffer up to 2 hrs; assay type: physicochemical
[42] = target: Gastrin-releasing peptide receptor (Homo sapiens, UniProt P30550); test: Displacement of [125I]-Tyr4-bombesin from GRP receptor in human PC3 cells; assay type: cell-based, PC-3
[43] = Drug metabolism in 0.9% NaCl assessed as compound hydrolysis; assay type: physicochemical
[44] = Drug metabolism in PBS buffer assessed as compound hydrolysis; assay type: physicochemical
[45] = Half life of the compound in water; assay type: physicochemical

Gastrin-releasing peptide receptor, sequence (P30550 whole entry): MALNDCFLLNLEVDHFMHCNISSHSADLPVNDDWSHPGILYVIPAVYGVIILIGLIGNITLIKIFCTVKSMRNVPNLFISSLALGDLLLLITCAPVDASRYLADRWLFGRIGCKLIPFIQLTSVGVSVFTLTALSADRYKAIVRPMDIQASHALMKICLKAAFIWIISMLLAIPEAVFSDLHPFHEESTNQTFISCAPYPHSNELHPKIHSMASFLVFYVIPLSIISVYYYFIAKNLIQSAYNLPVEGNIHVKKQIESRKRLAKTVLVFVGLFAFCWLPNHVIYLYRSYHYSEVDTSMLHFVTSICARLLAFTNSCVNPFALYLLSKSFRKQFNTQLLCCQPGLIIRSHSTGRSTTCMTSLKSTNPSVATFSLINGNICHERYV

Drug uptake [1]: 25 % ID/g | Drug uptake [2]: Active | Drug uptake [3]: 0.92 % ID/g | Drug uptake [4]: 0.44 % ID/g | Drug uptake [5]: 1.32 % ID/g | Drug uptake [6]: 1.09 % ID/g | Drug uptake [7]: 25 % ID/g | Ratio [8]: 5.03 | Drug uptake [9]: 2.44 % ID/g | Ratio [10]: 0.95 | Drug uptake [11]: 2.07 % ID/g | Drug uptake [12]: 1.24 % ID/g | Drug uptake [13]: 2.58 % ID/g | Drug uptake [14]: 0.85 % ID/g | Drug uptake [15]: 0.8 % ID/g | Drug uptake [16]: 20 % ID/g | Drug uptake [17]: 13 % ID/g | Drug uptake [18]: 128 % ID/g | Drug uptake [19]: 9.5 % ID/g | Drug uptake [20]: 36 % ID/g | Drug uptake [21]: 0.51 % ID/g | Drug uptake [22]: 0.29 % ID/g | Ratio [23]: 8.41 | Drug uptake [24]: 0.69 % ID/g | Drug uptake [25]: 5.37 % ID/g | Drug uptake [26]: 3.47 % ID/g | Drug uptake [27]: 0.42 % ID/g | Ratio [28]: 0.65 | Drug uptake [29]: 6 % ID/g | Drug uptake [30]: 1.37 % ID/g | Drug uptake [31]: 12.6 % ID/g | Drug uptake [32]: 2.15 % ID/g | Drug uptake [33]: 5.01 % ID/g | Drug uptake [34]: 21 % ID/g | Drug uptake [35]: 46 % ID/g | Drug uptake [36]: Not Active | Drug uptake [37]: 1.94 % ID/g | Drug uptake [38]: 4.2 % ID/g | Drug uptake [39]: 0.29 % ID/g | Drug uptake [40]: 4.1 % ID/g | Stability [41]: Stable
Structure (SMILES): CC(C)C[C@H](NC(=O)C[C@H](O)[C@H](CC(C)C)NC(=O)[C@H](Cc1cnc[nH]1)NC(=O)CN(C)C(=O)[C@@H](NC(=O)[C@H](C)NC(=O)[C@H](Cc1c[nH]c2ccccc12)NC(=O)[C@H](CCC(N)=O)NC(=O)CCCCNC(=O)[C@H](CS(=O)(=O)O)NC(=O)[C@H](CS(=O)(=O)O)NC(=O)C(O)C(O)C(=O)NCCc1ccc([Si]([18F])(C(C)(C)C)C(C)(C)C)cc1)C(C)C)C(N)=O (stereo not given in full)

pIC50 [42]: 8.28
Structure (SMILES): CSCC[C@H](NC(=O)[C@H](CC(C)C)NC(=O)[C@H](Cc1cnc[nH]1)NC(=O)CNC(=O)[C@@H](NC(=O)[C@H](C)NC(=O)[C@H](Cc1c[nH]c2ccccc12)NC(=O)[C@H](CCC(N)=O)NC(=O)[C@H](CC(N)=O)NC(=O)CNC(=O)[C@H](CC(C)C)NC(=O)[C@H](CCCCNC(=O)c1ccc(F)cc1)NC(=O)[C@H](CCC(N)=O)NC(=O)[C@@H]1CCC(=O)N1)C(C)C)C(N)=O

Drug metabolism [43]: Active | Drug metabolism [44]: Active | half-life [45]: 960 min
Structure (SMILES): CC(C)(C)[Si]([18F])(CCn1cc(CC(N)C(=O)O)nn1)C(C)(C)C (stereo not given)

half-life [45]: 960 min
Structure (SMILES): CC(C)(C)[Si](F)(CCn1cc(CC(N)C(=O)O)nn1)C(C)(C)C (stereo not given)

half-life [45]: > 18000 min
Structure (SMILES): CC(C)(C)[Si](F)(c1ccc(CC(=O)NCc2ccccc2)cc1)C(C)(C)C

Drug metabolism [43]: Active | Drug metabolism [44]: Active | half-life [45]: 480 min
Structure (SMILES): CC(C)(C)[Si]([18F])(CCO)C(C)(C)C

— ChEMBL document CHEMBL2429805, “Studies toward the development of new silicon-containing building blocks for the direct (18)F-labeling of peptides” (J Med Chem, 2013)
